Assay results: article PMC9681820, “A PDE10A inhibitor CPL500036 is a novel agent modulating striatal function devoid of most neuroleptic side-effects” (Frontiers in Pharmacology, 2022)
Where two headings read alike, the source gives them in different places.

What was measured:
[1] = target: T1, muscarinic acetylcholine receptor type 2 (Homo sapiens, UniProt P08172); test: SafetyScreen44 radioligand binding (antagonistic radioligand assay); settings: read-out: % Inh (% inhibition of control specific binding)
T1 construct: purchased Eurofins Cerep (SafetyScreen44)
T1 sequence (P08172 whole entry): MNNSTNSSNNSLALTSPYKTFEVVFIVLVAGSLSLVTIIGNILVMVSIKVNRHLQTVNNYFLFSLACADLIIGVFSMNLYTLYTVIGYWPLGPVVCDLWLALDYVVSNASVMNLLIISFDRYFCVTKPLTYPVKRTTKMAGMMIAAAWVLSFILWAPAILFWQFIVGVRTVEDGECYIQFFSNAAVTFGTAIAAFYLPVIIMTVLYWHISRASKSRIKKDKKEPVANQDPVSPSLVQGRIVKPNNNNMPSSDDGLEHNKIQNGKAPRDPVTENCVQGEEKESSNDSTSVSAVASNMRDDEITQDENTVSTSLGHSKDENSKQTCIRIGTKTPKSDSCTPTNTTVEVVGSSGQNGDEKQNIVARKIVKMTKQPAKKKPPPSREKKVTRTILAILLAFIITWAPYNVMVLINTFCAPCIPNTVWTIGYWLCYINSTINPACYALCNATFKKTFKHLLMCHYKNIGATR
Experimental: (§1) The SafetyScreen44® assay was carried out by Eurofins (Poitiers, France) according to the service-provider’s protocol. CPL500036 (1 µM) was tested against a panel of […] potential off-targets proteins, including G protein-coupled receptors (GPCRs), transporters, ion channels, nuclear receptors kinases and other non-kinase enzymes, by use of a set of the binding assays.
(§2) Binding of CPL500036 was calculated as the percent binding inhibition of a radioactively labeled ligand specific for each target. Enzyme inhibition of CPL500036 was calculated as the percent inhibition of the activity of the control enzyme. “No interaction” was denoted if inhibition ≤ 25% of specific binding of the control. Determination of muscarinic acetylcholine receptor (M2) activity induced by CPL500036 (antagonism and agonism) was undertaken in human recombinant CHO cells by measurement of the intracellular cAMP level according to the service-provider’s protocol. IC50 (concentration causing a half-maximal inhibition of specific binding of the control) or EC50 (concentration causing a half-maximal response of specific binding of the control) and the Hill coefficient were determined by non-linear regression analysis of the competition curves generated with mean replicate values using Hill-equation curve fitting with software developed at Cerep (Celle-Lévescault, France).

[2] = target: T2, Acetylcholinesterase (Homo sapiens, UniProt P22303); test: SafetyScreen44 enzyme inhibition; type: biochemical; settings: read-out: % Inh (percent inhibition of the activity of the control enzyme)
T2 construct: purchased Eurofins Cerep (SafetyScreen44)
T2 sequence (P22303 32-614): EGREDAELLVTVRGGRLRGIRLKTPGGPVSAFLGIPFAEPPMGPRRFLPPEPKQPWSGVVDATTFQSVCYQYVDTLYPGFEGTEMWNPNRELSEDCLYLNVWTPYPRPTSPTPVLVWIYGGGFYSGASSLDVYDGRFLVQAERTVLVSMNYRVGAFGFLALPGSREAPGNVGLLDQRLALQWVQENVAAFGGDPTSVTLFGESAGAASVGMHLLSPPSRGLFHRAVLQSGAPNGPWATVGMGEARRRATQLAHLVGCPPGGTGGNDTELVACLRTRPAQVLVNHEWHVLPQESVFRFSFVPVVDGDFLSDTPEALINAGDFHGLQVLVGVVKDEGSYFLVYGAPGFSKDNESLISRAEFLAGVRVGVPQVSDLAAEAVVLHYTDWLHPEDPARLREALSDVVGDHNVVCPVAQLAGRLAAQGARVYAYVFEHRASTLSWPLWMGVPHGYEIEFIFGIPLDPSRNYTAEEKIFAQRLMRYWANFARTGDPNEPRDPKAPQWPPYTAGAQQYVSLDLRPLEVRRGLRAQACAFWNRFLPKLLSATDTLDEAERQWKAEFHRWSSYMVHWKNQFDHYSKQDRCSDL
Experimental: as §1, §2

[3] = target: T3, Cyclooxygenase 1 (Homo sapiens, UniProt P23219); test: SafetyScreen44 enzyme inhibition; type: biochemical; settings: read-out: % Inh (percent inhibition of the activity of the control enzyme)
T3 construct: purchased Eurofins Cerep (SafetyScreen44)
T3 sequence (P23219 24-599): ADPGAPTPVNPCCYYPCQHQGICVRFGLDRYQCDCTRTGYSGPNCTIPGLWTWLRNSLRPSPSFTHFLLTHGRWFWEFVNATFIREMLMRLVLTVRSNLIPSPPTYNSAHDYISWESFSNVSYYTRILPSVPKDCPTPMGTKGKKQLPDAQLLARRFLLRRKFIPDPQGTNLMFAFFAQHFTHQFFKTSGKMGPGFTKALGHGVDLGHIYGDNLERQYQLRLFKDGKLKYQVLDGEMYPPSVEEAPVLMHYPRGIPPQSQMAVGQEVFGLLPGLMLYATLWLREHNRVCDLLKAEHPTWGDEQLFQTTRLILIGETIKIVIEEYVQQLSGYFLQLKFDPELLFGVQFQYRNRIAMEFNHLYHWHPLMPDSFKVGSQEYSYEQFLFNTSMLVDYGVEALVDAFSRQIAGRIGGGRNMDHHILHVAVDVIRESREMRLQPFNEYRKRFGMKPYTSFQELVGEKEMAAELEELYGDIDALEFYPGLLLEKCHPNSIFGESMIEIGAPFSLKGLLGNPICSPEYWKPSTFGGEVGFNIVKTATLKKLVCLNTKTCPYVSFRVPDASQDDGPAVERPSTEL
Experimental: as §1, §2

[4] = target: T4, lymphocyte-specific protein tyrosine kinase (Homo sapiens, UniProt P06239); test: SafetyScreen44 enzyme inhibition; type: biochemical; settings: read-out: % Inh (percent inhibition of the activity of the control enzyme)
T4 construct: purchased Eurofins Cerep (SafetyScreen44)
T4 sequence (P06239 whole entry): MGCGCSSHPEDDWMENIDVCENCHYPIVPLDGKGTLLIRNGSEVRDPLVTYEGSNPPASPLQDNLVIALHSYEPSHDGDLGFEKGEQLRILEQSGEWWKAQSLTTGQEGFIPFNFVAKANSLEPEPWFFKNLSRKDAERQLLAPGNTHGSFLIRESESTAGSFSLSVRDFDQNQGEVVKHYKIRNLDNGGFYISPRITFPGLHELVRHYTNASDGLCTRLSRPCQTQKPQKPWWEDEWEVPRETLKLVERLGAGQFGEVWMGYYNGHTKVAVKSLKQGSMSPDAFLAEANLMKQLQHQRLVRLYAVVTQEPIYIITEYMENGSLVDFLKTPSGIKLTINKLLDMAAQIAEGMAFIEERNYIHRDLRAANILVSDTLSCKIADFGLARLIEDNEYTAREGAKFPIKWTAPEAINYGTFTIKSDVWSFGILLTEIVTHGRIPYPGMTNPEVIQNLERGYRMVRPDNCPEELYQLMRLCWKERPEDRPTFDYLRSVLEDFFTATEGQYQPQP
Experimental: as §1, §2

[5] = target: T5, phosphodiesterase 3A (Homo sapiens, UniProt Q14432); test: SafetyScreen44 enzyme inhibition; type: biochemical; settings: read-out: % Inh (percent inhibition of the activity of the control enzyme)
T5 construct: purchased Eurofins Cerep (SafetyScreen44)
T5 sequence (Q14432 whole entry): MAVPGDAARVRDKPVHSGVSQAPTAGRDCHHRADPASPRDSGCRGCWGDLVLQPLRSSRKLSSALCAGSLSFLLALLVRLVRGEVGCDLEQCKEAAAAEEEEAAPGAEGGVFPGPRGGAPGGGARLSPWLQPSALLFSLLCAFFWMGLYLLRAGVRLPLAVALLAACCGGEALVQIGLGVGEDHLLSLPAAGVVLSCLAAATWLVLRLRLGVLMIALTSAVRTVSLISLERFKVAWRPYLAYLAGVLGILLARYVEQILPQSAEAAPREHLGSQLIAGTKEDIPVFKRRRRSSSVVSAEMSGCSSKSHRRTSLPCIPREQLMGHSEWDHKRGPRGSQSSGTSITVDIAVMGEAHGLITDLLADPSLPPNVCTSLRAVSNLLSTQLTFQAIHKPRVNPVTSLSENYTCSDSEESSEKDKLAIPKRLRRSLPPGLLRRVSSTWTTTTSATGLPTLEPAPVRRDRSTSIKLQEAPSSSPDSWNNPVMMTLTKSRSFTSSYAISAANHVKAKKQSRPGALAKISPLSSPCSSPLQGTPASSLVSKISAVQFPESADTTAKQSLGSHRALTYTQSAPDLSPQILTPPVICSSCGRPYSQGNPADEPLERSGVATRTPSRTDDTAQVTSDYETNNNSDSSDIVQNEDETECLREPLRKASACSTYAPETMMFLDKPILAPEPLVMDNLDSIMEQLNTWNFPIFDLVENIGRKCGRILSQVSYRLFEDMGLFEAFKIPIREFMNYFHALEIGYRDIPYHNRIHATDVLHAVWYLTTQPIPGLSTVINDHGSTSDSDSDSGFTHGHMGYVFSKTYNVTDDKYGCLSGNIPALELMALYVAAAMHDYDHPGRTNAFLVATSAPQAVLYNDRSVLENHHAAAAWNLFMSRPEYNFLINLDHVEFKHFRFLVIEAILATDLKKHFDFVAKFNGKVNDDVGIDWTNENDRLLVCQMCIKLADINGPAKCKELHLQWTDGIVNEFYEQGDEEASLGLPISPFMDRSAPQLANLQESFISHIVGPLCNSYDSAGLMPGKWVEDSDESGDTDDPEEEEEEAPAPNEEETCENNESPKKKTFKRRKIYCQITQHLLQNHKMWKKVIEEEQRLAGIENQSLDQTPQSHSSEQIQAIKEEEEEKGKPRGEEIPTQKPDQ
Experimental: as §1, §2

[6] = target: T6, M2 muscarinic (human) receptor (Homo sapiens, UniProt P08172); test: M2 functional assay, intracellular cAMP (HTRF) in CHO cells, agonist and antagonist mode; type: cell-based
T6 construct: host or cells: CHO-K1
T6 sequence (P08172 whole entry): as the sequence (P08172 whole entry) above
Experimental: as §2
Supplementary fig. 1 Assesment of possible allosteric modulation in M2 muscarinic (human) receptor […]
by CPL500036 in CHO cells.
The study was perfomed by Eurofins Cerep (Poitiers, France) according to the service-provider’s protocol. […] Cells were treated for 10 min with CPL500036. cAMP was detected by use of HTRF ( Homogeneous Time Resolved […]

[7] = target: hERG (Homo sapiens, UniProt Q12809); test: hERG tail current, manual patch-clamp in hERG-HEK-293 transfected cells; type: cell-based
Sequence of hERG (Q12809 whole entry): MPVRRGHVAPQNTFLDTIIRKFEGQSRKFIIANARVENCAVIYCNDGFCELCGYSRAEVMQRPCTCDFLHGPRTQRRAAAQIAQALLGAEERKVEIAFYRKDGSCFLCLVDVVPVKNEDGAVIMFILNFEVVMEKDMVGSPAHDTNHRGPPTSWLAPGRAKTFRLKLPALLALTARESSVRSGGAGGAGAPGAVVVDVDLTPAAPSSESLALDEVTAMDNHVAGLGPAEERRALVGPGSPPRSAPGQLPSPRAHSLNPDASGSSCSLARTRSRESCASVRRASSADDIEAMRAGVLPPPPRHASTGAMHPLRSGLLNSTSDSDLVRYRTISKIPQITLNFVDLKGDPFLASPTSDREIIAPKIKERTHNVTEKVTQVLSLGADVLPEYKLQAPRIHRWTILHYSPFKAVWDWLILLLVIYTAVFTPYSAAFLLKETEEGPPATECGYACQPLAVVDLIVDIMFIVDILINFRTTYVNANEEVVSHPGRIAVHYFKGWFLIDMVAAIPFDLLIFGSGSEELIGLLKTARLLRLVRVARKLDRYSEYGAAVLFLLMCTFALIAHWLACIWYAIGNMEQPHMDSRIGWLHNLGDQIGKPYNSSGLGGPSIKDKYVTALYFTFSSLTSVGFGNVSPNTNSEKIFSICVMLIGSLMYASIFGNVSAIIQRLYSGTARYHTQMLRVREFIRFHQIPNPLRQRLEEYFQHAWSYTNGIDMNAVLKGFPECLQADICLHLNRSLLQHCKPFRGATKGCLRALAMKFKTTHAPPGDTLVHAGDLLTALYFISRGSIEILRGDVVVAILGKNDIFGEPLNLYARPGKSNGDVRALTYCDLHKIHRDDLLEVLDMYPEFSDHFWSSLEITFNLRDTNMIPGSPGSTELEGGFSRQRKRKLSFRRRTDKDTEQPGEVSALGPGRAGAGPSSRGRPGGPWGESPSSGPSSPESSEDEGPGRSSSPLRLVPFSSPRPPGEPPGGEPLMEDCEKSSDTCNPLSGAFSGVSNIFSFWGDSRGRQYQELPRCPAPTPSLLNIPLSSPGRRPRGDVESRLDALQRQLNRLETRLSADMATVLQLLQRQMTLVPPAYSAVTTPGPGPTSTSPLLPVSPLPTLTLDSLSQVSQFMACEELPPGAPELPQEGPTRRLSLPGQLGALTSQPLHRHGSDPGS
Experimental: The dose-dependent effect of CPL500036 (10^–7 M–10^–5 M) on hERG current was conducted at Centre De Recherches Biologiques (CERB; Baugy, France) using the whole hERG-HEK-293 transfected cell system and manual patch-clamp method. […] Cells were clamped to −80 mV, depolarized to 0 mV for 5 s (to allow activation of hERG current) and repolarized to −50 mV for 5 s (to allow hERG tail current to deactivate). This experimental procedure was repeated at a frequency of 0.06 Hz. Currents were filtered at 1 kHz and acquired at a frequency of 2 kHz. The amplitude of hERG tail current was measured during the repolarizing pulse from 0 mV to −50 mV. […] Currents were measured before and after exposure to CPL500036.

[8] = tested on: Salmonella typhimurium TA98; test: Ames test; settings: CPL500036 5000µg/plate, n=3
[9] = tested on: Salmonella typhimurium TA1535; settings: CPL500036 5000µg/plate, n=3
[10] = tested on: Escherichia coli WP2 uvrA; test: Ames test; settings: CPL500036 5000µg/plate, n=3
[11] = pKa (Figure 1); type: physicochemical; settings: printed in the picture of Figure 1, no method given
[12] = With metabolic activation (+S9 mix), 2AA 2µg/plate
[13] = Without metabolic activation (-S9 mix), NPD 4µg/plate
[14] = Without metabolic activation (-S9 mix), SAZ 2µg/plate
[15] = Without metabolic activation (-S9 mix), MMS 2µg/plate

SMILES: Cc1ncc(C)n2nc(-c3ccn4cc(-c5ccccc5)nc4n3)nc12 [CPL500036, 7-[5,8-Dimethyl-(1,2,4)triazolo (1,5-a)pyrazin-2-yl]-2-phenylimidazo (1,2-a) pyrimidine]
- inhibition at 1 µM [1]: -91.2%
- inhibition at 1 µM [2]: 13.7%
- inhibition at 1 µM [3]: -9.5%
- inhibition at 1 µM [4]: -1.9%
- inhibition at 1 µM [5]: -15.2%
- IC50 [6]: 9.2 µM
- agonist-like behavior ([6]; agonistic mode, in presence of methoctramine, CHO cells, cAMP): didn’t trigger any agonist-like behavior
- hERG IC25 relative to the IC50 for PDE10A [7]: > 3,000 times
- IC25, inhibition of hERG tail current ([7]; hERG-HEK-293 transfected cells, manual patch-clamp, mean ± SD, n = 3): 3.2 ± 1.6 µM
- Mutation rate [8, 12]: 0.92
- Revertants Mean±SD [8, 12]: 18.3±8.02
- Mutation rate [8, 13]: 0.74
- Revertants Mean±SD [8, 13]: 14.3±1.15
- Mutation rate [9, 12]: 0.6
- Revertants Mean±SD [9, 12]: 8.3±5.13
- Mutation rate [9, 14]: 1.13
- Revertants Mean±SD [9, 14]: 12.0±5.57
- Mutation rate [10, 12]: 1.76
- Revertants Mean±SD [10, 12]: 42.3±2.89
- Mutation rate [10, 15]: 1.12
- Revertants Mean±SD [10, 15]: 22.3±2.08
- pKa [11]: 2.41
